Reference: US9662370B2, “Peptidyl diacylglycerides” (priority 2008, dated 2017)
Where no end group is shown, it is not given here. DAG = diacylglycerol ester at the C-terminus

Columns and labels:
[1] = system: Hepatitis B virus; experiment: HBV replication in HepDES19 cells (core DNA Southern blot); type: cell-based; conditions: HepDES 19 cells
Description: A tetracycline inducible HBV-stable cell line, HepDES19 cells (Guo, 2007), were maintained in DMEM/F-12 medium with penicillin and streptomycin (Invitrogen), 10% FBS, 500 μg/ml G418 (Invitrogen) and 1 μg/ml tetracycline (Sigma-Aldrich, St. Louis, Mo.). To initiate the HBV replication in HepDES19 cells, tetracycline was withdrawn from the medium and the cell was cultured for 4-5 days before viral DNA analysis. To treat the cells with pDAG, the peptide was added in the tetracycline free medium and supplied on the cell culture daily. The concentration of solvent DMSO was adjusted to 0.01% in every treatment.
HBV core DNA was extracted from pDAG-treated HepDES19 cells as described previously (Guo, 2009). Briefly, cells from one 35 mm dish were lysed with 0.5 ml of lysis buffer (10 mM Tris-HCl pH 8.0, 10 mM EDTA, 1% NP40 and 2% sucrose) at 37° C. for 10 minutes. Cell debris and nuclei were removed by centrifugation and the supernatant was mixed with […] of 35% polyethylene glycol (PEG-8000) containing 1.5 M NaCl. After 1 hour incubation in ice, viral nucleocapsids were pelleted by centrifugation at 10,000 rpm for 5 min at 4° C., followed by 1 hour digestion at 37° C. in 200 μl of digestion buffer [0.5 mg/ml pronase (Calbiochem), 0.5% SDS, 150 mM NaCl, 25 mM Tris-HCl pH 8.0, and 10 mM EDTA]. […]

[2] = system: AR39 Chlamydia pneumoniae; experiment: Chlamydia pneumoniae clearance from infected THP-1 monocytes (flow cytometry); type: cell-based; conditions: 25 ng/ml and 50 ng/ml
Description: THP-1 monocytes (5×10^4 cells/well) were cultured in Hank's Buffered Saline 1 with 10% FBS in a 24-well microplate. Cells were infected with […] AR39 Chlamydia pneumoniae (CPn) bacteria cells to give an MOI=1 and the infected cells were maintained for 72 hours after infection with a daily media change. Cells were either treated with the PDAG vehicle (0.01% Tween-20 in DMSO) or PDAG (25 ng/ml and 50 ng/ml) 24 hours prior to infection or 24 hours after infection. After the 72 hour incubation period cells were harvested and permeabilized with Cytofix/Cytoperm (BD Pharmingen) and mouse α-CPn monoclonal IgG (clone 61C75) was added and the permeabilized cells incubated for 1 hour. After incubation cells were washed and FITC labeled α-mouse IgG was added and incubated for 1 hour. Cells were again harvested and washed. Quantitation of infected cells was measured by flow cytometry. The viability of cells was determined by trypan blue exclusion.

[3] = system: Salmonella typhimurium; experiment: Lethal Salmonella typhimurium challenge in mice; type: in vivo, Swiss Webster mice
Description: Swiss Webster mice were challenged with a lethal dose, 5×10^3 cfu/mouse of Salmonella typhimurium. Fifteen of the mice were treated with 5 μg/ml PDAG 24 hours prior to the lethal inoculation. Mice were maintained and monitored daily for 10 days. […] By day 10, 12 mice in the PDAG treated group remained alive, whereas all had died in the untreated group. P<0.0001.

[4] = system: IL-6; experiment: IL-6 mRNA (real-time PCR) and IL-6 protein (ELISA) in fibroblasts stimulated with PDAG; type: cell-based; conditions: 100 pg/ml PDAG, 24 h
Description: Fibroblasts were stimulated with synthetic PDAG for 24 h. RNA was extracted from the fibroblasts and IL-6 transcripts were measured by real-time PCR and IL-6 protein was measure in the media by ELISA. […] Likewise approximately 2-fold more IL-6 protein in the media of the PDAG treated fibroblasts (P=0.0001) was measured.

[5] = system: NFκB; experiment: NFκB transcripts in primary human fibroblasts incubated with PDAG; type: cell-based; conditions: 100 pg/ml, overnight, P=0.4
Description: (§1) mRNA was extracted from primary human fibroblasts incubated overnight with 100 pg/ml synthetic PDAG. NALP3 and NFκB transcripts were measured.

[6] = system: M. tuberculosis IgM; parameters: species or system New Zealand White rabbits; conditions: rabbit, in vivo
[7] = system: NALP3; experiment: NALP3 transcripts in primary human fibroblasts incubated with PDAG; type: cell-based; conditions: 100 pg/ml, overnight, P=0.007
Description: as §1

[8] = Stability of PDAG to hydrolysis; type: physicochemical; conditions: acidic conditions

acALYDKGYTSKEQKDCVGI-DAG (Ac-ALYDKGYTSKEQKDCVGI-{DAG}) [PDAG, Peptidyl diacylglyceride: N-acetylated 18-mer peptide esterified at C-terminal isoleucine to 1-stearoyl-2-arachidonoyl-sn-glycerol]
Hepatitis B virus replication [1]: suppresses Hepatitis B virus replication
Chlamydia pneumoniae clearance from infected monocytes [2]: induce Chlamydia pneumoniae clearance
mice remaining alive by day 10 ([3]; fifteen treated mice, 5 μg/ml PDAG 24 hours prior to lethal inoculation, all untreated died, P<0.0001): 12 mice
disease progression ([3]; mice infected with a lethal dose of Salmonella typhimurium): significantly delays disease progression
day on which mortality was first observed ([3]; mice, 5×10^3 cfu/mouse, 5 μg/ml PDAG 24 hours prior to inoculation, control group day 4): 7 days
IL-6 protein in the media ([4]; ELISA, vs control, P=0.0001): approximately 2 fold
IL-6 mRNA levels ([4]; vs untreated cells, P=0.001): increase IL-6 mRNA levels
NFκB transcripts increase [5]: did not
antigen specific IgM production [6]: two-fold increase
NALP3 transcripts increase [7]: 1.75 fold

PDAG peptide: Peptide portion of PDAG without the lipid moiety (acALYDKGYTSKEQKDCVGI, SEQ ID NO:8) (Ac-ALYDKGYTSKEQKDCVGI)
Chlamydia pneumoniae clearance from infected monocytes [2]: induce Chlamydia pneumoniae clearance

acALYDKGYTSKEQKDCVGI-DAG [native PDAG]
IgM titer, FCA+PDAG vs FCA only [6]: significantly greater
lability to hydrolysis [8]: especially labile to hydrolysis under acidic conditions
